The values that follow come from patent EP4725948A1, “PYRROLO[2,3-D]PYRIMIDIN-4-AMINE DERIVATIVE AND USE THEREOF IN MEDICINE” (Haisco Pharmaceutical Group Co., Ltd., priority 2023, dated 2024).

A word on the EC50: it is the concentration that produces a half-maximal response. Higher therefore signals lower potency in that assay.

For the first data set, the target named is T1, soluble guanylate cyclase (sGC) (Homo sapiens, UniProt Q02108+Q02153).
T1 sequence (Q02108 1-690): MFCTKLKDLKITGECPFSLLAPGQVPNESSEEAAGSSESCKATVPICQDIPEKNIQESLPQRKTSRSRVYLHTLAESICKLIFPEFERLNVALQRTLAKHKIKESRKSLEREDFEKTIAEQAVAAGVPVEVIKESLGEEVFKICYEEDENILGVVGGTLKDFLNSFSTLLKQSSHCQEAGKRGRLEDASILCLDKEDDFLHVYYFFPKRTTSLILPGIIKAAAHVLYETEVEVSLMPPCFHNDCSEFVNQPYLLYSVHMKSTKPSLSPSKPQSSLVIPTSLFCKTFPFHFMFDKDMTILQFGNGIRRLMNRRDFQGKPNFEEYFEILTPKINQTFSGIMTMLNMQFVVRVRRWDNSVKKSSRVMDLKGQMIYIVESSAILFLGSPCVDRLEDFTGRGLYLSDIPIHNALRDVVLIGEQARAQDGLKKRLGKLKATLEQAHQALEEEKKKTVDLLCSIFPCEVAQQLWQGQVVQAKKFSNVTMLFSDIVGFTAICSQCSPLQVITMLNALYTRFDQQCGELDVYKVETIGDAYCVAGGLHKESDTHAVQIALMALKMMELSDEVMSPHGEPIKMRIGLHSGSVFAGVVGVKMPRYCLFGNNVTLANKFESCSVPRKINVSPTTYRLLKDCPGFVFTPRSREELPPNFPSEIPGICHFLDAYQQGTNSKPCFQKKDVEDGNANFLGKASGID
T1 sequence (Q02153 1-619): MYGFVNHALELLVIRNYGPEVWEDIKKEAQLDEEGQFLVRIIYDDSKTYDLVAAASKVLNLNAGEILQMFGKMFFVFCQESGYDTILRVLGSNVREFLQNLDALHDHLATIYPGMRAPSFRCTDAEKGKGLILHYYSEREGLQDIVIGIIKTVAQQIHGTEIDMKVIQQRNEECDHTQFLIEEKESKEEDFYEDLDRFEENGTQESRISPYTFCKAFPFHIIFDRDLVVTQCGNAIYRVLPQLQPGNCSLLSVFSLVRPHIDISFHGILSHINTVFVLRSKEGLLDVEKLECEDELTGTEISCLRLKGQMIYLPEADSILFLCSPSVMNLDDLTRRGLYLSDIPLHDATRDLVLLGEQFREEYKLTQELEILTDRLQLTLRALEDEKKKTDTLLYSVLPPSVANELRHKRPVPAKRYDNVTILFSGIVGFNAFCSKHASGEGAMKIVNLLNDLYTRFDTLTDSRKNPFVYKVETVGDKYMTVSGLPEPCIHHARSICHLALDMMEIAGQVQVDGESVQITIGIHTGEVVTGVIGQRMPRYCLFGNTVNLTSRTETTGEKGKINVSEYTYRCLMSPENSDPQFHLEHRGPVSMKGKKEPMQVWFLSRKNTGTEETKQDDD
The data set can be described thus: In vitro detection experiment for soluble guanylate cyclase (sGC) activity (TR-FRET).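 Also: enzyme reaction started with GTP and run for 60 min at 37°C, followed by a 60 min detection step at room temperature, with EC50 obtained by nonlinear curve fitting.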
Settings: not given
(In general: Time-resolved FRET reads energy transfer from a long-lived donor to a nearby acceptor.)
The compound `CC(C)(Cc1csc(C2(C)C(=O)Nc3nc(-c4nc(CCC(F)(F)C(F)(F)F)n5ncccc45)nc(N)c32)n1)C(=O)O` (racemic) [Compound 3] displayed an EC50 of less than 20 nM. Still for that read-out and setting: to `CC(C)(Cc1cccc(C2(C)C(=O)Nc3nc(-n4c(=O)n(CCC(F)(F)C(F)(F)F)c5ncccc54)nc(N)c32)c1)C(=O)O` (racemic) [Compound 9] belongs less than 20 nM; to `CC(C)(Cc1csc(C2(C)C(=O)Nc3nc(-n4c(=O)n(CCC(F)(F)C(F)(F)F)c5ncc(F)cc54)nc(N)c32)n1)C(=O)O` (racemic) [Compound 12], less than 20 nM; to `CC(C)(Cc1csc(C2(C)C(=O)Nc3nc(-n4nc(CCC(F)(F)C(F)(F)F)c5cc(F)ccc54)nc(N)c32)n1)C(=O)O` (racemic) [Compound 17], less than 20 nM. Consider `CC(C)(Cc1csc(C2(C)C(=O)Nc3nc(-c4nc(Cc5ccccc5F)n5ncccc45)nc(N)c32)n1)C(=O)O` (racemic) [Compound 19], for which the EC50 is less than 20 nM. Still for that read-out and setting: to `CC(C)(Cc1csc(C2(C)C(=O)Nc3nc(-n4nc(Cc5ccccc5F)c5ncc(F)cc54)nc(N)c32)n1)C(=O)O` (racemic) [Compound 35] belongs less than 20 nM; to `CC(C)(Cc1csc(C2(C)C(=O)Nc3nc(-n4nc(Cc5cccc(F)c5F)c5ncc(F)cc54)nc(N)c32)n1)C(=O)O` (racemic) [Compound 36], less than 20 nM.

With `CC(C)(Cc1csc(C2(C)C(=O)Nc3nc(-n4nc(CCC(F)(F)C(F)(F)F)c5ncc(F)cc54)nc(N)c32)n1)C(=O)O` (racemic) [Compound 37], the EC50 is less than 20 nM. Same read-out and setting: the same measure for `CC(C)(Cc1csc(C2(C)C(=O)Nc3nc(-n4nc(Cc5ccccc5F)c5c(F)cccc54)nc(N)c32)n1)C(=O)O` (racemic) [Compound 41]: less than 20 nM.

For the compound `CC(C)(Cc1csc(C2(C)C(=O)Nc3nc(-c4nc(CCC(F)(F)C(F)(F)F)n5cc(F)ccc45)nc(N)c32)n1)C(=O)O` (racemic) [Compound 45], the EC50 was less than 20 nM.

`CC(C)(Cc1csc(C2(C)C(=O)Nc3nc(-n4nc(CCC(F)(F)C(F)(F)F)c5cc(Cl)ccc54)nc(N)c32)n1)C(=O)O` (racemic) [Trifluoroacetate of compound 4] yielded an EC50 of less than 20 nM. Same read-out and setting: to `CC(C)(Cc1csc(C2(C)C(=O)Nc3nc(-n4c(=O)n(CCC(F)(F)C(F)(F)F)c5c(F)cccc54)nc(N)c32)n1)C(=O)O` (racemic) [Trifluoroacetate of compound 14] belongs less than 20 nM; to `CC(C)(Cc1csc(C2(C)C(=O)Nc3nc(-n4c(=O)n(Cc5ccccc5F)c5cc(F)ccc54)nc(N)c32)n1)C(=O)O` (racemic) [Trifluoroacetate of compound 38], less than 20 nM; to `CC(C)(Cc1cccc(C2(C)C(=O)Nc3nc(-n4c(=O)n(CCC(F)(F)C(F)(F)F)c5cc(Cl)ccc54)nc(N)c32)c1)C(=O)O` (single isomer, unassigned) [Compound 1-2], less than 20 nM.

Compound `CC(C)(Cc1coc(C2(C)C(=O)Nc3nc(-n4c(=O)n(CCC(F)(F)C(F)(F)F)c5cc(F)ccc54)nc(N)c32)n1)C(=O)O` (centres unmarked) [Compound 11] had an EC50 of less than 20 nM. The same measure, in the same setting: the same measure for `CC(C)(Cc1csc(C2(C)C(=O)Nc3nc(-n4c(=O)n(CC5CCCCC5)c5ncc(F)cc54)nc(N)c32)n1)C(=O)O` (centres unmarked) [Compound 13]: less than 20 nM.

The compound `CC(C)(Cc1coc(C2(C)C(=O)Nc3nc(-n4c(=O)n(CCC(F)(F)C(F)(F)F)c5c(F)cccc54)nc(N)c32)n1)C(=O)O` (centres unmarked) [Compound 16] registered an EC50 of less than 20 nM. `CC(C)(Cc1cccc(C2(C)C(=O)Nc3nc(-c4nc(CCC(F)(F)C(F)(F)F)n5ncccc45)nc(N)c32)c1)C(=O)O` (centres unmarked) [Compound 18]: the EC50 was less than 20 nM.

`CC(C)(Cc1csc(C2(C)C(=O)Nc3nc(-c4nn(CCC(F)(F)C(F)(F)F)c5cc(Cl)cnc45)nc(N)c32)n1)C(=O)O` (centres unmarked) [Compound 20]: the EC50 was less than 20 nM. On the same count and under the same terms, the same measure for `CC(C)(Cc1coc(C2(C)C(=O)Nc3nc(-c4nn(CCC(F)(F)C(F)(F)F)c5cc(Cl)cnc45)nc(N)c32)n1)C(=O)O` (centres unmarked) [Compound 21]: less than 20 nM; for `CC(C)(Cc1csc(C2(C)C(=O)Nc3nc(-c4nn(Cc5cccc(F)c5F)c5cccnc45)nc(N)c32)n1)C(=O)O` (centres unmarked) [Compound 24]: less than 20 nM.

The compound `CC(C)(Cc1csc(C2(C)C(=O)Nc3nc(-n4nc(CCC(F)(F)C(F)(F)F)c5ncccc54)nc(N)c32)n1)C(=O)O` (centres unmarked) [Compound 29] came in with an EC50 of less than 20 nM. On the same count and under the same terms, to `CC(C)(Cc1coc(C2(C)C(=O)Nc3nc(-n4nc(Cc5ccccc5F)c5c(F)cccc54)nc(N)c32)n1)C(=O)O` (centres unmarked) [Compound 40] belongs less than 20 nM; to `CC(C)(Cc1coc(C2(C)C(=O)Nc3nc(-n4nc(Cc5cccc(F)c5F)c5c(F)cccc54)nc(N)c32)n1)C(=O)O` (centres unmarked) [Compound 42], less than 20 nM; to `CC(C)(Cc1csc(C2(C)C(=O)Nc3nc(-n4nc(CC5CCCCC5)c5ncc(F)cc54)nc(N)c32)n1)C(=O)O` (centres unmarked) [Compound 44], less than 20 nM. The same measure, in the same setting: the same measure for `CC(C)(Cc1coc(C2(C)C(=O)Nc3nc(-c4nc(CCC(F)(F)C(F)(F)F)n5cc(F)ccc45)nc(N)c32)n1)C(=O)O` (centres unmarked) [Compound 46]: less than 20 nM; for `CC(C)(Cc1cccc(C2(C)C(=O)Nc3nc(-n4nc(CCC(F)(F)C(F)(F)F)c5ncccc54)nc(N)c32)c1)C(=O)O` (centres unmarked) [Trifluoroacetate of compound 5]: less than 20 nM; for `CC(C)(Cc1csc(C2(C)C(=O)Nc3nc(-n4c(=O)n(CCC(F)(F)C(F)(F)F)c5ncccc54)nc(N)c32)n1)C(=O)O` (centres unmarked) [Trifluoroacetate of compound 10]: less than 20 nM. Regarding `CC(C)(Cc1csc(C2(C)C(=O)Nc3nc(-c4nn(Cc5ccccc5F)c5cccnc45)nc(N)c32)n1)C(=O)O` (centres unmarked) [Trifluoroacetate of compound 23], the EC50 is less than 20 nM. The same measure, in the same setting: to `CC(C)(Cc1csc(C2(C)C(=O)Nc3nc(-n4c(=O)n(Cc5cccc(F)c5F)c5ncc(F)cc54)nc(N)c32)n1)C(=O)O` (centres unmarked) [Trifluoroacetate of compound 28] belongs less than 20 nM.

`CC(C)(Cc1coc(C2(C)C(=O)Nc3nc(-n4nc(Cc5ccccc5F)c5cc(Cl)ccc54)nc(N)c32)n1)C(=O)O` (centres unmarked) [Trifluoroacetate of compound 34] gave an EC50 of less than 20 nM.

The same data set, now with this note: enzymatic agonism and/or activation of sGC; 1.5 nM sGC, 5 µM GTP, 100 µM DETA NONOate.
In turn, `CC(C)(Cc1coc(C2(C)C(=O)Nc3nc(-n4c(=O)n(CCC(F)(F)C(F)(F)F)c5cc(Cl)ccc54)nc(N)c32)n1)C(=O)O` (centres unmarked) [Compound 8] yielded an EC50 of less than 20 nM.

Take `CC(C)(Cc1csc(C2(C)C(=O)Nc3nc(-n4c(=O)n(CCC(F)(F)C(F)(F)F)c5cc(F)ccc54)nc(N)c32)n1)C(=O)O` (centres unmarked) [Compound 31]: the EC50 is less than 20 nM. Same read-out and setting: to `CC(C)(Cc1csc(C2(C)C(=O)Nc3nc(-n4c(=O)n(Cc5ccccc5F)c5c(F)cccc54)nc(N)c32)n1)C(=O)O` (centres unmarked) [Trifluoroacetate of compound 15] belongs less than 20 nM; to `CC(C)(Cc1csc(C2(C)C(=O)Nc3nc(-n4nc(Cc5ccccc5F)c5cc(Cl)ccc54)nc(N)c32)n1)C(=O)O` (centres unmarked) [Trifluoroacetate of compound 32], less than 20 nM. With `CC(C)(Cc1coc(C2(C)C(=O)Nc3nc(-n4nc(CCC(F)(F)C(F)(F)F)c5cc(F)ccc54)nc(N)c32)n1)C(=O)O` (centres unmarked) [Trifluoroacetate of compound 33], the EC50 was less than 20 nM.

Tested on in a further data set: not listed separately
The data set can be described thus: Pharmacokinetic test in rats (inhalation administration). The following applies: SD rats, single inhalation dose 0.03 mg/kg.
Method: Experimental objective: In this experiment, the test compound was administered as a single dose via inhalation to SD rats, and the concentrations of the test compound in rat plasma and lungs were determined to evaluate the pharmacokinetic characteristics and bioavailability of the test compound in the rats.
Experimental animals: Male SD rats, 180-200 g, purchased from Chengdu Dossy Experimental Animals Co., Ltd.
Experimental method: On the day of the experiment, SD rats were randomly assigned into 6 groups according to body weight (for each compound), with 2 rats in each group. The rats were fasted with water available for 12 to 16 hours one day before the administration, and were fed 4 hours after the administration.
Plasma sampling: before and after the administration, blood was taken from the orbits of the rats under isoflurane anaesthesia, and placed in an EDTAK2 centrifuge tube. Centrifugation was performed at 6000 rpm at 4°C for 10 min, and the plasma was collected.
Lung tissue sampling: Animals from each group were euthanised by CO2 inhalation at 0.25, 0.5, 1, 4, 7 and 24 hours after the administration. Then, the animal was dissected to collect lung tissue, which was rinsed with physiological saline, dried with filter paper, weighed in the balance, kept on wet ice and homogenised within 2 hours using a 6-fold volume (i.e., 6 mL per 1 g of tissue) of homogenisation buffer (50% methanol-water).
Before analysis and detection, all samples were stored at -60°C. The samples were analysed quantitatively by LC-MS/MS.
With `CC(C)(Cc1csc(C2(C)C(=O)Nc3nc(-n4nc(Cc5cccc(F)c5F)c5ncc(F)cc54)nc(N)c32)n1)C(=O)O` (single isomer, unassigned) [Compound 36-1], the “Lung AUC0-t/plasma AUC0-t” value is recorded as 49.1.

Staying with this data set, now noted: SD rats, single inhalation dose 0.03 mg/kg, lung tissue.
As to `CC(C)(Cc1csc(C2(C)C(=O)Nc3nc(-n4nc(Cc5cccc(F)c5F)c5ncc(F)cc54)nc(N)c32)n1)C(=O)O` (single isomer, unassigned) [Compound 36-1], the “Lung AUC0-t” value turned out to be 10133 ng·h/mL and the “Lung Cmax” value came out at 4067 ng/mL.

For `CC(C)(Cc1csc(C2(C)C(=O)Nc3nc(-n4nc(CCC(F)(F)C(F)(F)F)c5ncc(F)cc54)nc(N)c32)n1)C(=O)O` (single isomer, unassigned) [Compound 37-1], the “Lung AUC0-t” value was 3281 ng·h/mL and the “Lung Cmax” value is 1729 ng/mL.
